Experimental data taken from PMC6827283, “A Na^+ leak channel cloned from Trichoplax adhaerens extends extracellular pH and Ca^2+ sensing for the DEG/ENaC family close to the base of Metazoa” (The Journal of Biological Chemistry, 2019).

Tests used:
[1] = target: T1, TadNaC6 (Trichoplax adhaerens, UniProt A0A5J6BVG3); assay: whole-cell patch clamp, CHO-K1 cells; type: cell-based; conditions: agonist (activation); perfusion from pH 5 to pH 7.5 (figure legend pH 7.4); 10 μM to 3 mM tested; no EC50
T1 construct: gene ASIC6; full-length untagged channel from pTadNaC6-IR-EGFP (pIRES2-EGFP, EGFP expressed separately) in CHO-K1 cells; functional homomer, trimer by homology; cloning primers encode N-terminus MMAKGKIDH and C-terminus ADATNPDM-stop
T1 sequence (A0A5J6BVG3 1-492): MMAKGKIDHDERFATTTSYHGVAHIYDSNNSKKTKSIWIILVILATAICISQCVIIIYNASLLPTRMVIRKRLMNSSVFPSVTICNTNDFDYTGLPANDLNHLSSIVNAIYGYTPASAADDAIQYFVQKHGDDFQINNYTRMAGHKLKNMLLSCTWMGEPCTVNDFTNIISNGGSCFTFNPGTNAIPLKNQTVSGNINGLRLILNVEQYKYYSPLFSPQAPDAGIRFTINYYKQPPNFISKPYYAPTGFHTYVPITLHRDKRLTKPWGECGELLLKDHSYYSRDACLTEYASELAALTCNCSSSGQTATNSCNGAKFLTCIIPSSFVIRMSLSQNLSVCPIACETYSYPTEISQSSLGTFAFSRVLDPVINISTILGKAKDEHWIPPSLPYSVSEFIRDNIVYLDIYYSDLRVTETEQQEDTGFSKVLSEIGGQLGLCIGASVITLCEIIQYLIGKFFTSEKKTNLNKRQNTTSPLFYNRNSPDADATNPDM

[2] = target: T1, TadNaC6; assay: whole-cell patch clamp, CHO-K1 cells; type: cell-based

| SMILES | fold current at 3 mM relative to pH 9 without amiloride [1] | IC50 [2] |
| --- | --- | --- |
| N=C(N)NC(=O)c1nc(Cl)c(N)nc1N [amiloride] | ~ 12 fold |  |
| N=C(N)c1ccc(/N=N/Nc2ccc(C(=N)N)cc2)cc1 [diminazene] |  | 578 ± 69.4 µM |
